Data taken from paper PMC5607265, “Design, synthesis and structure-activity relationship of 3,6-diaryl-7H-[1,2,4]triazolo[3,4-b][1,3,4]thiadiazines as novel tubulin inhibitors” (Scientific Reports, 2017).
“Also recorded” adds a separate entry of the source.

Assays:
HCT116 = tested on: HCT116; parameters: method as in Org. Biomol. Chem. 2005, 3, 2657-2660; details: ref Org. Biomol. Chem. 2005, 3, 2657-2660; cited from earlier work
SGC-7901 cells = experiment: Cell cycle analysis by flow cytometry; format: cell-based, human; details: for cell cycle arrest: SGC-7901, 12 h, 6i 0.011, 0.022, 0.044 µM, CA-4 0.022 µM
Procedure: Thus, the effect of compound 6i on the cell cycle progression of the SGC-7901 cells was investigated by flow cytometry analysis (Fig. 5). […] Compound 6i could arrest cell cycle distribution at the G2/M phase in a dose-dependent manner.
Figure 5 Compound 6i affects the cell cycle progression in SGC-7901 cells.
Cell cycle analysis studies were performed by following a previously reported method. […] The cells were collected by centrifugation, washed with PBS and fixed in ice-cold 70% ethanol. The fixed cells were harvested by centrifugation and resuspended in 500 µl of PBS containing 1 mg/mL RNase. After 30 min of incubation at 37 °C, the cells were stained with […] propidium iodide (PI) at 4 °C in the dark for 30 min. The samples were then analyzed by FACScan flow cytometry (Becton-Dickinson, Franklin Lakes, NJ, USA). The experiments were repeated at least three times.
The cells were collected by centrifugation, washed with PBS and fixed in ice-cold 70% ethanol. The fixed cells were harvested by centrifugation and resuspended in 500 µl of PBS containing 1 mg/mL RNase. After 30 min of incubation at 37°C, the cells were stained with […] propidium iodide (PI) at 4°C in the dark for 30 min. The samples were then analyzed by FACScan flow cytometry (Becton-Dickinson, Franklin Lakes, NJ, USA). The experiments were repeated at least three times.
Figure S1 Compound 6i induced G2/M phase arrest in a time-dependent manner. SGC-7901 cells were treated with 6i (0.022 µM) for time 12, 24, 36, 48 and 60 h, then stained with PI and subjected to flow cytometric analysis.

[1] = tested on: gastric adenocarcinoma SGC-7901 cells; experiment: MTT antiproliferative assay, SGC-7901; format: cell-based, human; details: Homo sapiens, SGC-7901; MTT assay, 24 h exposure, triplicate; read-out: IC50 SGC-7901
Procedure: (§1) The SGC-7901, A549 and HT-1080 cell lines were purchased from the American Type Culture Collection (ATCC, Manassas, VA, USA). […] Briefly, approximately 3 × 10^4 cells were seeded in a 96-well plate. After 24 h of incubation at 37 °C, cells were exposed to compounds of differing concentrations for 24 h. After treatment, cells were washed with 1X PBS followed by addition of 100 µL of 0.05% MTT reagent to each well, followed by incubation for 4 h at 37 °C. After incubation, the supernatant from each well was carefully removed and the formazan crystals were dissolved in 100 µL of DMSO. The colour density was measured spectrophotometrically at 490 nm using a microplate reader (SpectraMax Plus384, Molecular Devices Corp., USA). The data were calculated and plotted as percent viability compared to control.
as §1

[2] = tested on: lung adenocarcinoma A549 cells; experiment: MTT antiproliferative assay, A549; format: cell-based, human; details: Homo sapiens, A549; MTT assay, 24 h exposure, triplicate; read-out: IC50 A549
Procedure: as §1, §1

[3] = tested on: fibrosarcoma HT-1080 cells; experiment: MTT antiproliferative assay, HT-1080; format: cell-based, human; details: Homo sapiens, HT-1080; MTT assay, 24 h exposure, triplicate; read-out: IC50 HT-1080
Procedure: as §1, §1

Row | SMILES | IC50 (HCT116) [nM] | cell cycle arrest (SGC-7901 cells) | IC50 [1] [nM] | IC50 [2] [nM] | IC50 [3] [nM] | apoptosis after G2/M arrest (sub-G1) (SGC-7901 cells; SGC-7901, 6i 0.022 µM, 12-60 h) | melting point [°C]
1 | COc1ccc(/C=C\c2cc(OC)c(OC)c(OC)c2)cc1O [CA-4, Combretastatin A-4, reference compound] | 16 | potent cell cycle arrests in G2/M phase | 11 | 9 | 13 | – | –
2 | COc1cccc(-c2nnc3n2N=C(c2ccc(OC)c(N)c2)CS3)c1 [Compound 6i, 3-(3-Methoxyphenyl)-6-(3-amino-4-methoxyphenyl)-7H-[1,2,4]triazolo[3,4-b][1,3,4]thiadiazine] | – | induced cell arrest in G2/M phase from 0 to 12 h; also recorded: potent cell cycle arrests in G2/M phase | 11 | 15 | 14 | sub-G1 phase increase from 24 to 60 h; also recorded: cause subsequent apoptosis after G2/M arrest | 138 to 140
